Test [1] deals with T1, O-GlcNAcase in human 293T cells (Homo sapiens, UniProt O60502).
T1 construct: endogenous in cells; host or cells: 293T cells
T1 sequence (O60502 1-916): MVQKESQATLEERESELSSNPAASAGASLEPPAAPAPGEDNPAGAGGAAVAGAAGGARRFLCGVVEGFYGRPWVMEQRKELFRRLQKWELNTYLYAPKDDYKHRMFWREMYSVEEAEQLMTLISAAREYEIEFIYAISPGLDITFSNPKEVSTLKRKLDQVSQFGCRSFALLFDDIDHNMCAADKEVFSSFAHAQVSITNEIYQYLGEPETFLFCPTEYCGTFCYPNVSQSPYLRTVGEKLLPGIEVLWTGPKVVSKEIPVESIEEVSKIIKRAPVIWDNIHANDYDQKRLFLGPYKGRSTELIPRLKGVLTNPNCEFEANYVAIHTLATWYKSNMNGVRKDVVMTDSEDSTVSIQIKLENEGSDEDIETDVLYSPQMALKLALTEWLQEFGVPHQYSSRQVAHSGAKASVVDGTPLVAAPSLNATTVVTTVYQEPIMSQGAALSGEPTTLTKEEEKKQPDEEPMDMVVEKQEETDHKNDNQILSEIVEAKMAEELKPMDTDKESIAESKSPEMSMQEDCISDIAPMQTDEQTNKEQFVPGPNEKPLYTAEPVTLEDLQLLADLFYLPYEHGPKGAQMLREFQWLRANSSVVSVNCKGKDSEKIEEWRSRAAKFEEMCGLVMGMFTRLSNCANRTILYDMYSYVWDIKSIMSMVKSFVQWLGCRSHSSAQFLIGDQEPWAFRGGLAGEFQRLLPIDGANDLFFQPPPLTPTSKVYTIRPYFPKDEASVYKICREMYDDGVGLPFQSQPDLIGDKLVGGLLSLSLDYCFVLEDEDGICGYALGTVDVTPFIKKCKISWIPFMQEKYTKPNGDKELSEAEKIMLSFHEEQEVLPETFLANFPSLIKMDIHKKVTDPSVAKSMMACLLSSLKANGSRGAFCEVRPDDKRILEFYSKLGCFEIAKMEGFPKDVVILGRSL
Description: Level of protein-associated O-GlcNAc in treated 293T cells by Western blot. The test is classed as cell-based. The following applies: 10 μM, 16 hours, Western blot with anti-O-GlcNAc antibody, versus un-treated cells. How it is done:
Additionally, Compounds 1 and 3 were tested to determine their inhibitory effects on O-GlcNAcase in human 293T cells. The cells were treated with 10 μM Compound 1 or 3 for 16 hours. The level of protein-associated O-GlcNAc moieties in the treated cells was determined by Western blot analysis using an anti-O-GlcNAc antibody. See Macauley et al., J. Biol. Chem. 2005, 280, 25313-25322. Two known O-GlcNAcase inhibitors, PUGNAc (10 μM) and STZ (10 μM), were used as positive controls (Hanover et al., Arch Biochem. Biophys. 1999, 362, 38-45 and Rao et al., EMBO J. 2006, 25, 1569-1578).
(In general: Immunoblotting shows a protein as a band on a membrane.)

Test [2] has as its system BV2 cells. As to the kind of experiment: GM2 ganglioside level in BV2 cells by high performance thin-layer chromatography. Type of test: cell-based, mouse. The following applies: 200 nM, 10 days, HPTLC. As for the experimental part:
Glycosphingolipids (e.g., GM2) were extracted from the treated cells with chloroform/methanol and the ganglioside levels were determined by high performance thin-layer chromatography.

Test [3] deals with Bacteroids fragilis O-GlcNAcase (Bacteroides fragilis, UniProt Q5L8V6). Description: Michaelis-Menten/Lineweaver-Burk kinetic inhibition of O-GlcNAcase with 4MU-NAG substrate. The test is classed as biochemical. The following applies: for Selectivity (KI O-GlcNAcase/KI HEX): Bacteroids fragilis O-GlcNAcase over human HEX B, Table 1. How it is done: Bacteroids fragilis O-GlcNAcase, which is highly homologous to human O-GlcNAcase, was prepared as follows. Based on the genome sequence of B. fragilis (NCTC 9343) as disclosed in GenBank accession no. CR626927 (Oct. 23, 2008), a DNA fragment encoding the B. fragilis O-GlcNAcse was amplified via polymerase chain reaction (PCR), using the primers of: 5′-[…]-3′ (SEQ ID NO:1) (forward primer) and 5′-[…]-3′ (SEQ ID NO:2) (reverse primer). The PCR product was cloned into pGEM-T Easy vector (Promega) via cloning sites Nde1 and Xho1 and then subcloned into pET21b vector to produce expression plasmid pOGA, which encodes a fusion protein including O-GlcNAcase and a His6 tag at the C-terminus
Sequence of Bacteroids fragilis O-GlcNAcase (Q5L8V6 entry or part of it): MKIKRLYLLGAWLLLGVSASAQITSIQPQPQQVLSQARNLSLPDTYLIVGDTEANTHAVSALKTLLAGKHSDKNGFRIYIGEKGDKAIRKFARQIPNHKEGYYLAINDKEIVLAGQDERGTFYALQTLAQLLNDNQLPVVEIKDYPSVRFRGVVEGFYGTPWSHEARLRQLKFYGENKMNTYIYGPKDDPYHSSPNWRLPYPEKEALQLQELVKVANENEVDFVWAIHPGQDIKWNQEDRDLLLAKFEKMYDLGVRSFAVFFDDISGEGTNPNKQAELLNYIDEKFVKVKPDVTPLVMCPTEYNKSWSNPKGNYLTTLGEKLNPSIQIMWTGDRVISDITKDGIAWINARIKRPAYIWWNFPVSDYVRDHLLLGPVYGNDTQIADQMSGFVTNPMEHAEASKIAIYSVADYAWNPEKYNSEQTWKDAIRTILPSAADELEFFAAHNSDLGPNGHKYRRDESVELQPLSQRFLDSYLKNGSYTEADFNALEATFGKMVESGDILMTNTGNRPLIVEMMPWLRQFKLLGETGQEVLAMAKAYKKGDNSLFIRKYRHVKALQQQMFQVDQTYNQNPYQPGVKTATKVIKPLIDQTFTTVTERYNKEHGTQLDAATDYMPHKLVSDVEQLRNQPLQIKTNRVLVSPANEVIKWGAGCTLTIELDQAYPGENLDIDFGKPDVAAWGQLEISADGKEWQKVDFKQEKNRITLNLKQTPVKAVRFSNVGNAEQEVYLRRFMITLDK
Plasmid pOGA was transformed into E. coli BL21 (DE3) cells and a positive transformant was cultured in Luria-Bertani (LB) medium with ampicillin (100 μg/mL) overnight. The E. coli culture, transferred to fresh LB medium, was incubated at 37° C. and, when A600 of the culture reached 0.6, isopropyl-β-D-thiogalactopyranoside (final conc: 250 μM) was added to induce expression of O-GlcNAcse. The induced cells were further cultured at 16° C. overnight, harvested, and disrupted to produce a cell lysate. Upon centrifugation, the supernatant thus obtained was loaded onto a nickel-affinity column. After elution, a fraction containing O-GlcNAcse was collected and the enzyme contained therein was further purified by gel filtration using a Superdex 6 column. See Dennis et al., Nat Struct Mol Biol 2006, 13: 365-71. The purified protein was concentrated using a 10 kDa-cutoff concentrator and dialyzed against 20 mM HEPES (pH 7.5).
The reaction conditions for each enzyme are shown below:
O-GlcNAcase: reaction mixture (0.5 nM O-GlcNAcase (200 μL) in 50 mM citric acid, 100 mM NaCl, 0.1% BSA, 0.05-1.5 mM substrate, pH 4.25) was incubated at 30° C. for 25 minutes. The enzyme activity at different time points was determined by measuring the levels of the fluorescent signals (excitation wavelength: 360 nm; emission wavelength: 460 nm) released from 4-methylumbelliferone, a product of the enzyme reaction.
(§1) In these reactions, the substrate concentrations were three to five fold of the concentration used for determining KM (absent compounds) and the ratio between the enzyme and the compound was 0.1-0.5 nM to 0.3 nM-200 uM. The data thus obtained were analyzed by the Lineweaver-Burk plot. The K1 values were determined by the double reciprocal plot (1/V vs. 1/[S]). More specifically, the Km values for each enzyme in the presence of one of the test compounds first determined and these values were further plotted in view of the concentrations of the compound. K1 was determined by calculating the negative value of the resulting x-intercept. The selectivity of each compound was calculated by the formula: K1 O-GlcNAcase/K1 Hex B.

For test [4], the target named is T2, Human HEX B (Homo sapiens, UniProt P07686).
T2 construct: Hex B protein (isolated from human placenta) was purchased from Sigma Co; purchased Sigma Co; host or cells: human placenta
T2 sequence (P07686 315-556 limits assumed): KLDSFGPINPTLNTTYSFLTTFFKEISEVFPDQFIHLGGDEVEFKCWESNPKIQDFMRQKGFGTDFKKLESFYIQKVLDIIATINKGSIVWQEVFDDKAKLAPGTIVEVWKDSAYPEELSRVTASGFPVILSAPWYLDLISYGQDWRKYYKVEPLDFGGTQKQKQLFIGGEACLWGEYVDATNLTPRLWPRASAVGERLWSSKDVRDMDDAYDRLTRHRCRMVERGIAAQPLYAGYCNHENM
T2 sequence (P07686 122-311 limits assumed): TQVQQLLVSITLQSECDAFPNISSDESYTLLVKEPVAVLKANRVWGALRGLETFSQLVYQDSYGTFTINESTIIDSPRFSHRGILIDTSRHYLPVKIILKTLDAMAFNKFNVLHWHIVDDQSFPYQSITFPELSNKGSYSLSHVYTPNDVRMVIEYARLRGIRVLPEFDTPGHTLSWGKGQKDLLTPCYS
T2 sequence (P07686 50-107 partner limits assumed): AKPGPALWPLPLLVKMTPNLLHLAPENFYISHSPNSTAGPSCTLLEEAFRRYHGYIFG
As to the kind of experiment: Michaelis-Menten/Lineweaver-Burk kinetic inhibition of Hex B with 4MU-NAG substrate. Type of test: biochemical. How it is done:
Hex B protein (isolated from human placenta) was purchased from Sigma Co.
Both O-GlcNAcase and Hex B were subjected to Michaelis-Menton kinetic analysis to determine the kinetics of their enzymatic activity in the presence of absence of Compounds 1-5 and Compound ix, using 4-methylumbelliferyl-N-acetyl-β-D-glucosaminide (4MU-NAG; purchased from Sigma Co.) as the substrate (a fluorogenic substrate). The reaction conditions for each enzyme are shown below:
Hex B: reaction mixture (0.1 nM Hex B (200 μL), 50 mM NaH2PO4, 100 mM NaCl, 0.1% BSA, 0.05-1.5 mM substrate, pH 6.5) was incubated at 30° C. for 25 minutes. The reaction was terminated by addition of a 3× quenching buffer (200 mM sodium glycine buffer, pH 10.8). The enzyme activity was determined as described above.
as §1, with “To determine the effects of Compounds 1-5 and Compound ix on the kinetics of both enzymes, the enzyme reactions described above were performed in the presence of each compound at different concentrations. In” for “In”

Test [5] addresses T3, Human O-GlcNAcase (Homo sapiens, UniProt O60502).
T3 construct: made in house
T3 sequence (O60502 1-916): T1 sequence (O60502 1-916)
As to the kind of experiment: Inhibition of human O-GlcNAcase. Type of test: biochemical. The following applies: Table 2; for Selectivity (KI O-GlcNAcase/KI HEX): Human O-GlcNAcase over human HEX B; for Ki: Human O-GlcNAcase. How it is done: Human O-GlcNAcase was also prepared and tested according to the procedures described in Gao et al., J. Biol. Chem. 2001, 276, 9838-9845 and Macauley et al., J. Am. Chem. Soc. 2005, 127, 17202-17203.

Take `CC(=O)N[C@H]1/C(=N/OC(=O)Nc2ccccc2)O[C@H](CO)[C@@H](O)[C@@H]1O` [PUGNAc, reference compound]: the “level of O-GlcNAc moieties in treated cells” value (shortened to “level of O-GlcNAc moieties”) in test [1] is reported as “notably increased”. Also, the “GM2 level in treated cells” value in test [2] was “only modestly increased”.

For the compound `CN(N=O)C(=O)N[C@@H]1[C@@H](O)[C@H](O)[C@@H](CO)O[C@@H]1O` [STZ, reference compound], in test [1], the “level of O-GlcNAc moieties” value is “notably increased”.

By Ki is commonly meant a measure of affinity in units of concentration, obtained from inhibition or displacement. High values mean a looser hold on the target, low ones a stronger hold on the target. `COc1ccc(CNCCCCCCCN2CC(NC(C)=O)C(O)C(O)C2CO)cc1` (stereo not drawn) [Compound 2]: the Ki in test [3] is 72.1 ± 0.88 µM; in test [4] (Table 1), 0.0012 ± 0.00023 µM; in test [4] (Table 2), 0.0012 ± 0.00023 µM; in test [5], 102 ± 6.47 µM. Besides, the “Selectivity (KI O-GlcNAcase/KI HEX)” value was 60,000 in test [3] and 85,000 in test [5].

In the case of `CC(=O)NC1CN(CCCCCCCN)C(CO)C(O)C1O` [Compound 1, N-[1(7-Amino-heptyl)]-2-acetamido-1,2,5-trideoxy-1,5-imino-D-glucitol], the Ki in test [3] is 75.3 ± 9.13 µM; in test [4] (Table 1), 0.0021 ± 0.00038 µM; in test [4] (Table 2) it was 0.0021 ± 0.00038 µM; in test [5], 108 ± 9.17 µM. Besides, the “Selectivity (KI O-GlcNAcase/KI HEX)” value in test [3] was 36,000; in test [5], 51,000. For the same compound, the “level of O-GlcNAc moieties” value in test [1] is recorded as “not significantly different than that in un-treated cells”.

As for `COc1ccc(CN(CCCCCCCN2CC(NC(C)=O)C(O)C(O)C2CO)Cc2ccc(OC)cc2)cc1` (stereo not drawn) [Compound 3], the inhibition constant (Ki) was found to be 129 ± 2.55 µM in test [3], 0.00069 ± 7.7e-05 µM in test [4] (Table 1), 0.00069 ± 7.7e-05 µM in test [4] (Table 2) and 176 ± 2.15 µM in test [5]. For the same compound, the “Selectivity (KI O-GlcNAcase/KI HEX)” value in test [3] is 190,000; in test [5], 250,000. The “level of O-GlcNAc moieties” value in test [1] is listed as “not significantly different than that in un-treated cells”. Further, the “GM2 level in treated cells” value in test [2] is “significantly increased”.

On to `CC(=O)NC1CN(CCCCCCCN=[N+]=[N-])C(CO)C(O)C1O` (stereo not drawn) [Compound 4], for which the Ki in test [3] is 95.7 ± 8.37 µM; in test [4] (Table 1), 1.7 ± 0.56 µM; in test [4] (Table 2), 1.7 ± 0.56 µM; in test [5], 155 ± 9.87 µM. For the same compound, the “Selectivity (KI O-GlcNAcase/KI HEX)” value in test [3] is reported as 56; in test [5], 91.

(Values after patent publication US8466291B2, “1,5-dideoxy-1,5-imino-D-glucitol compounds” (Academia Sinica, priority 2008, dated 2013).)
